Laboratory results published in US20250171434A1, “SEC61 INHIBITORS AND USE THEREOF” (KEZAR LIFE SCIENCES, INC., priority 2022, published 2025).
Like-named read-outs stand apart in the source and are kept apart here.

Assays:
[1] = system: IL-2-FL/Gaussia Luciferase; test: Dox Inducible IL2-FL-Gluc Assay; format: cell-based
Summary of the method: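 Flp-In 293 T-REx cells stably carrying doxycycline-inducible full-length IL-2 (aa 1-153) fused at its C-terminus to Gaussia luciferase, selected with hygromycin and blasticidin. Cells were plated the day before, then treated with compounds in DMSO/media containing doxycycline at 37° C, 5% CO2.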

[2] = system: multiple myeloma cell line U266B1; test: U266 Cell Viability Assay; format: cell-based; details: Homo sapiens
Summary of the method: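 Cells grown in RPMI 1640 with 10% FBS, 2 mM glutamine and penicillin/streptomycin were exposed to compound dilutions in DMSO/media for 48 hours at 37° C., 5% CO2. Viability was read by CellTiter-Glo luminescence. Undefined stereocentres mean data for stereoisomer mixtures.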

[3] = Liver Microsome Stability Assay, human; format: in vitro ADME; details: human liver microsomes 1.0 mg/mL, 1.0 uM compound, 37° C., 1 mM NADPH
Summary of the method: (§1)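 Incubations at 37° C contain 1.0 mg/mL liver microsomes and 1.0 uM compound, with 1 mM NADPH present or absent. Time points are 0 and 30 minutes.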

[4] = Liver Microsome Stability Assay, rat; format: in vitro ADME; details: rat liver microsomes 1.0 mg/mL, 1.0 uM compound, 37° C., 1 mM NADPH
Summary of the method: as §1

[5] = Liver Microsome Stability Assay, mouse; format: in vitro ADME; details: mouse liver microsomes 1.0 mg/mL, 1.0 uM compound, 37° C., 1 mM NADPH
Summary of the method: as §1

[6] = system: TNFα-FL/Gaussia Luciferase; test: Dox Induced TNFα-FL-Gluc Assay; format: cell-based
Excerpt: (§2) Flp-In 293 T-REx™ cells were transfected with pcDNA™5/FRT/TO plasmid inserted with cDNA encoding Gaussia Luciferase fused to the 3′ end of cDNA encoding full length TNFα (amino acids 1-233). Transfected cells were selected for resistance to the selectable markers Hygromycin and Blasticidin to create a stable cell line that contained the TNFα-FL/Gaussia Luciferase cDNA insert whose expression was regulated under the T-REx™ system. The day before assay, cells were trypsinized and plated in 384-well tissue culture plates. The next day, compound dilutions in DMSO/media containing doxycycline were added to the wells and incubated at 37° C., 5% CO2.
(§3) For chemical structures that include one or more stereoisomers, but are illustrated without indicating stereochemistry, the assay data refers to a mixture of stereoisomers.

[7] = system: multiple myeloma cell line NCI-H929; test: H929 Cell Viability Assay; format: cell-based, human; details: Homo sapiens
Summary of the method: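 NCI-H929 cells, resuspended in RPMI 1640 with 10% FBS and 2 mM glutamine, were treated with compound dilutions in DMSO/media and incubated 48 hours at 37° C, 5% CO2. Viability was read by CellTiter-Glo luminescence. Compounds drawn without stereochemistry were tested as stereoisomer mixtures.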

[8] = Liver Microsome Stability Assay, monkey; format: in vitro ADME; details: monkey liver microsomes 1.0 mg/mL, 1.0 uM compound, 37° C., 1 mM NADPH
Summary of the method: as §1

[9] = system: PD1-ss+10aa/Gaussia Luciferase; test: Dox-Induced PD1-ss-Gluc Assay; format: cell-based
Summary of the method: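 Doxycycline-induced expression of a PD1-ss+10aa/Gaussia luciferase reporter is measured in stable Flp-In 293 T-REx cells. Compound dilutions containing doxycycline are added one day after plating and incubated at 37 °C, 5% CO2. Values for unassigned stereocentres refer to stereoisomer mixtures.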

[10] = system: HER3-ss+4aa/Gaussia Luciferase; test: Dox-Inducible Her3-ss-Gluc Assay; format: cell-based
Excerpt: as §2, with “HER3 signal sequence plus 4 amino” for “full length TNFα (amino”, “(N-[…]-C) (SEQ ID NO: 2).” for “1-233).”, “HER3-ss+4aa/Gaussia” for “TNFα-FL/Gaussia”
as §3

[11] = ratio of IC50s IL2/PD1; Table 3
[12] = read-out: 24 hr Dox Inducible IL2FLGluc 293FRT/TO: Mean IC50; Flp-In 293 T-REx cells, 24 hours with doxycycline; Table 3
[13] = U-266, 48 h, read-out: 48 hr U266 Viability Celltiter-Glo: Mean EC50 (nM)
[14] = ratio of IC50s TNF/PD1; Table 3
[15] = read-out: 24 hr Dox Inducible TNFaFLGluc 293FRT/TO: Mean IC50; Flp-In 293 T-REx cells, 24 hours with doxycycline; Table 3
[16] = NCI-H929, 48 h, read-out: 48 hr H929 Viability Celltiter-Glo: Mean EC50 (nM)
[17] = read-out: 24 hr Dox Inducible PD1ssGluc 293FRT/TO: Mean IC50; Flp-In 293 T-REx cells, 24 hours with doxycycline; Table 3
[18] = read-out: 24 hr Dox Inducible Her3(ss + 4)Gluc 293FRT/TO: Mean IC50; Flp-In 293 T-REx cells, 24 hours with doxycycline; Table 3
[19] = Flp-In 293 T-REx cells, 24 hours with doxycycline; Table 3; read-out: 24 hr Dox Inducible IL2FLGluc 293FRT/TO: Mean IC50
[20] = U-266, U266B1 cells, 48 hours, Celltiter-Glo, read-out: 48 hr U266 Viability Celltiter-Glo: Mean EC50
[21] = Flp-In 293 T-REx cells, 24 hours with doxycycline; Table 3; read-out: 24 hr Dox Inducible TNFaFLGluc 293FRT/TO: Mean IC50
[22] = NCI-H929 cells, 48 hours, Celltiter-Glo, read-out: 48 hr H929 Viability Celltiter-Glo: Mean EC50
[23] = Flp-In 293 T-REx cells, 24 hours with doxycycline; Table 3; read-out: 24 hr Dox Inducible PD1ssGluc 293FRT/TO: Mean IC50
[24] = Flp-In 293 T-REx cells, 24 hours with doxycycline; Table 3; read-out: 24 hr Dox Inducible Her3(ss + 4)Gluc 293FRT/TO: Mean IC50

Row | SMILES | 24 hr Dox Inducible IL2FLGluc 293FRT/TO: IL2/PD1 [1, 11] | IC50 [1, 12] | EC50 [2, 13] | Liver Microsome Stability (Multiple Species): Human - % Remaining after 30 min w/ NADPH (%) [3] | Liver Microsome Stability (Multiple Species): Rat - % Remaining after 30 min w/ NADPH (%) [4] | Liver Microsome Stability (Multiple Species): Mouse - % Remaining after 30 min w/ NADPH (%) [5] | 24 hr Dox Inducible TNFaFLGluc 293FRT/TO: TNF/PD1 [6, 14] | IC50 [6, 15] | EC50 [7, 16] | Liver Microsome Stability (Multiple Species): Monkey - % Remaining after 30 min w/ NADPH (%) [8] | IC50 [9, 17] | IC50 [10, 18] | IC50 [1, 19] | EC50 [2, 20] | IC50 [6, 21] | EC50 [7, 22] | IC50 [9, 23] | IC50 [10, 24]
1 | O=C(Nc1nc(/C=C/c2ncoc2CO)cs1)c1cccn1Cc1ccnc(F)c1 [Compound B1, (E)-1-((2-fluoropyridin-4-yl)methyl)-N-(4-(2-(5-(hydroxymethyl)oxazol-4-yl)vinyl)thiazol-2-yl)-1H-pyrrole-2-carboxamide] | >2.8 | > 25 µM | > 25000 nM | 10% | 3% | 29% | >2 | > 25 µM | > 25000 nM | 2% | 8.93 µM | > 25 µM |  |  |  |  |  | 
2 | CC(C)n1cnc(F)c1/C=C/c1csc(NC(=O)c2cccn2Cc2ccnc(F)c2)n1 [Compound B2, (E)-N-(4-(2-(4-fluoro-1-isopropyl-1H-imidazol-5-yl)vinyl)thiazol-2-yl)-1-((2-fluoropyridin-4-yl)methyl)-1H-pyrrole-2-carboxamide] | 2 | 6.64 µM | > 25000 nM | <1% | 8% | 6% | >5 | > 25 µM | > 25000 nM | <1% | 4.48 µM | 6.4 µM |  |  |  |  |  | 
3 | O=C1CCn2cc(/C=C/c3csc(NC(=O)c4cccn4Cc4ccnc(F)c4)n3)nc2N1 [Compound B3, (E)-1-((2-fluoropyridin-4-yl)methyl)-N-(4-(2-(7-oxo-5,6,7,8-tetrahydroimidazo[1,2-a]pyrimidin-2-yl)vinyl)thiazol-2-yl)-1H-pyrrole-2-carboxamide] | >39 |  |  | <1% | 19% | 53% | >38 |  |  | 1% |  |  | > 25 µM | > 25000 nM | > 25 µM | > 25000 nM | 0.644 µM | > 25 µM
4 | O=C(Nc1nc(/C=C/c2ccc(OC(F)F)cn2)cs1)c1cccn1Cc1ccnc(F)c1 [Compound B4, (E)-N-(4-(2-(5-(difluoromethoxy)pyridin-2-yl)vinyl)thiazol-2-yl)-1-((2-fluoropyridin-4-yl)methyl)-1H-pyrrole-2-carboxamide] | 130 |  |  | <1% | 1% | 7% | 544 |  |  | <1% |  |  | 1.65 µM | 19400 nM | 7.04 µM | 8750 nM | 0.013 µM | 0.816 µM
5 | O=C(Nc1nc(/C=C/c2ccc(C(F)(F)F)cn2)cs1)c1cccn1Cc1ccnc(F)c1 [Compound B5, (E)-1-((2-fluoropyridin-4-yl)methyl)-N-(4-(2-(5-(trifluoromethyl)pyridin-2-yl)vinyl)thiazol-2-yl)-1H-pyrrole-2-carboxamide] | 70 |  |  | 4% | 20% | 20% | 230 |  |  | <1% |  |  | 1.2 µM | > 25000 nM | 3.94 µM | > 25000 nM | 0.017 µM | 0.553 µM
6 | O=C(Nc1nc(/C=C/c2ccc(OC3CC3)cc2F)cs1)c1cccn1Cc1ccnc(F)c1 [Compound B6, (E)-N-(4-(4-cyclopropoxy-2-fluorostyryl)thiazol-2-yl)-1-((2-fluoropyridin-4-yl)methyl)-1H-pyrrole-2-carboxamide] | 9 |  |  | 42% | 41% | 63% | 14 |  |  | 24% |  |  | 0.265 µM | > 25000 nM | 0.445 µM | > 25000 nM | 0.031 µM | 0.137 µM
7 | C/C(=C\c1ccc(C)c(F)n1)c1csc(NC(=O)c2cccn2Cc2ccnc(F)c2)n1 [Compound B7, (E)-N-(4-(1-(6-fluoro-5-methylpyridin-2-yl)prop-1-en-2-yl)thiazol-2-yl)-1-((2-fluoropyridin-4-yl)methyl)-1H-pyrrole-2-carboxamide] | 17 |  |  | 4% | 13% | 23% | 134 |  |  | 6% |  |  | 0.499 µM | > 25000 nM | 3.98 µM | 8090 nM | 0.03 µM | 0.184 µM
